Measured values: ChEMBL document CHEMBL3351844, “Synthesis and evaluation of iminocoumaryl and coumaryl derivatized glycosides as galectin antagonists” (Bioorg Med Chem Lett, 2014)
pKd: −log10 of the molar value. Calls of active or inactive are those of the source. The rule behind the calls is not given here.

Legend:
[1] = target: Galectin-7 (Homo sapiens, UniProt P47929); test: Antagonist activity against human galectin 7 by fluorescence polarization assay; conditions: for pKd: read-out: Kd
[2] = target: Galectin-9 (Homo sapiens, UniProt O00182); test: Antagonist activity against human galectin 9 N-terminal domain by fluorescence polarization assay
[3] = target: T1, Galectin-1 (Homo sapiens, UniProt P09382); conditions: 10 mM
Description: Antagonist activity against human galectin 1 at 10 mM by fluorescence polarization assay

[4] = target: T1, Galectin-1; test: Antagonist activity against human galectin 1 by fluorescence polarization assay; conditions: for pKd: read-out: Kd
[5] = target: Galectin-3 (Homo sapiens, UniProt P17931); test: Antagonist activity against human galectin 3 by fluorescence polarization assay
[6] = target: T2, Galectin-8 (Homo sapiens, UniProt O00214); test: Antagonist activity against human galectin 8 N-terminal domain by fluorescence polarization assay
T2 sequence (O00214 whole entry): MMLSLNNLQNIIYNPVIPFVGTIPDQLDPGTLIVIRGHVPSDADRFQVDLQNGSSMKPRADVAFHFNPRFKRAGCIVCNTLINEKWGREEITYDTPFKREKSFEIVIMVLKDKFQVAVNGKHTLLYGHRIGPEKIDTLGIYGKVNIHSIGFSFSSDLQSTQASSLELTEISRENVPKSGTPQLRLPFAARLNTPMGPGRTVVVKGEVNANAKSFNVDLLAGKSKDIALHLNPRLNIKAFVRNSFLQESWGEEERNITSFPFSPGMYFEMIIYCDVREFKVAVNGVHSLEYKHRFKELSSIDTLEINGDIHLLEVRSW

Chain of Galectin-7 (P47929 whole entry, the tested form may be a part): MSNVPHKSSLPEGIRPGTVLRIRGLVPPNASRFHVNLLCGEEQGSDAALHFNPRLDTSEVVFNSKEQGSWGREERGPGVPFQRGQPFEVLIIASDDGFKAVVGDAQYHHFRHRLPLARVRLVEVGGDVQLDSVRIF
Chain of Galectin-9 (O00182 whole entry, the tested form may be a part): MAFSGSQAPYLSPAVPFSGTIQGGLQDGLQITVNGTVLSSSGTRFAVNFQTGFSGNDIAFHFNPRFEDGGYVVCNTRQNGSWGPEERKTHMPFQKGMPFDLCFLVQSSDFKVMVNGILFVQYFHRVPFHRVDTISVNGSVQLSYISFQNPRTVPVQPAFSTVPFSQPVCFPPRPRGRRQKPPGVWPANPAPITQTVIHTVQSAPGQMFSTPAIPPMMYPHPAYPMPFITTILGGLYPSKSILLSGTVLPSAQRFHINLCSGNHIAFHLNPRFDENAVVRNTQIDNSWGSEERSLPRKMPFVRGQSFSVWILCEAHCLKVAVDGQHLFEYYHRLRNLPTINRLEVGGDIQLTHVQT
Chain of Galectin-3 (P17931 whole entry, the tested form may be a part): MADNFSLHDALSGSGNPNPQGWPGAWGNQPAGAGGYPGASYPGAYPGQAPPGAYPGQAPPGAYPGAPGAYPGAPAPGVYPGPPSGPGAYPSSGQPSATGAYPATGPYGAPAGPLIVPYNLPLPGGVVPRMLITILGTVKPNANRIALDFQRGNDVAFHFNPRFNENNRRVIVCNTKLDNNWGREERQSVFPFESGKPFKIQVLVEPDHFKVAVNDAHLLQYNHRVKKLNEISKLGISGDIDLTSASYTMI
T1 sequence (P09382 whole entry): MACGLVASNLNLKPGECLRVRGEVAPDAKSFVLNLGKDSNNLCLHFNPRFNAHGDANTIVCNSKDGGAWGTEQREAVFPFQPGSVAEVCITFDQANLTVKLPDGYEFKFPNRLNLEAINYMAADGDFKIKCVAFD

SMILES	pKd [1]	pKd [2]	inhibition [3]	pKd [4]	pKd [5]	pKd [6]	Kd [1]	Kd [4]
CO[C@H]1O[C@H](CO)[C@H](O)[C@H](O)[C@H]1O	1.96	2.55	inactive					
CO[C@H]1O[C@H](CO)[C@H](O)[C@H](OCc2cc3ccccc3o/c2=N\S(=O)(=O)c2ccc(C)cc2)[C@H]1O	2.77	3.85		2.77	3.92	3.60		
Cc1ccc(S(=O)(=O)/N=c2\oc3ccccc3cc2CO[C@@H]2O[C@H](CO)[C@@H](O[C@@H]3O[C@H](CO)[C@H](O)[C@H](O)[C@H]3O)[C@H](O)[C@H]2O)cc1		4.10		3.30	3.89	3.85	Not Active	
CO[C@H]1O[C@H](CO)[C@H](O)[C@H](OCc2cc3ccccc3o/c2=N\S(=O)(=O)c2ccccc2)[C@H]1O	2.96	4.12		3.19	4.09	3.41		
CO[C@H]1O[C@H](CO)[C@H](O)[C@H](OCc2cc3ccccc3oc2=O)[C@H]1O	3.07	3.74		2.72	4.11	3.74		
CO[C@H]1O[C@H](CO)[C@H](O)[C@H](OCc2cc3ccccc3o/c2=N\S(=O)(=O)c2ccc(C)cc2)[C@H]1OC(C)=O	3.74	4.44		2.29	4.01	3.77		
CS[C@@H]1O[C@H](CO)[C@H](O)[C@H](NC(=O)c2ccc(C)cc2)[C@H]1O	< 2.70	2.82		3.01		< 2.70		
CO[C@@H]1O[C@H](CO)[C@@H](O[C@@H]2O[C@H](CO)[C@H](O)[C@H](O)[C@H]2O)[C@H](O)[C@H]1O	3.96	4.64		3.72	3.66	4.21		
CS[C@@H]1O[C@H](CO)[C@H](O)[C@H](n2cc(C(=O)NCc3ccccc3)nn2)[C@H]1O		< 2.30						Not Active
Cc1ccc(S(=O)(=O)/N=c2\oc3ccccc3cc2CO[C@@H]2O[C@H](CO)[C@H](O)[C@H](O)[C@H]2O)cc1		2.15		2.44	2.00	2.41	Not Active	
CO[C@H]1O[C@H](CO)[C@H](O)[C@H](OCc2cc3ccccc3o/c2=N\S(=O)(=O)c2ccccc2)[C@H]1OC(C)=O	3.64	4.35		2.35	3.89	3.57		
